Results: US8927498B2, “Compositions and methods useful in enhancement of memory” (The Translational Genomics Research Institute, priority 2010, dated 2015)

Legend:
Type in all cases: in vivo, rat
[1] = test system: Tiam1; assay: RT-PCR validation of Tiam1 normalized to GADPH; details: n = 9; vehicle 1.02
Excerpt: (§1) Following sacrifice, the left hippocampus was utilized for genome-wide expression profiling. […] These included Adcyap1 with fold change (FC) of 1.5, and p=0.029, Tiam1 with FC of −1.5 and p=0.028, and Filip1 with FC of −1.75 and p=0.032 (Table 1). The RT-PCR validation of the fold change of FILIP1 and Tiam1 is shown in Table 2 and Table 3, respectively.

[2] = test system: FILIP1; assay: RT-PCR validation of FILIP1 (normalized to GAPDH); details: n = 9; vehicle 1.28
Excerpt: as §1

[3] = test system: hippocampal transcripts (mitochondrial pathway genes and genes associated with neurological function); assay: transcriptome examination using RNA-Seq, hippocampus
Excerpt: Transcriptome Examination Using RNA-Seq Upon MARCKS Peptide Decoy Treatment
as §1
Table 4 disclosed herein provides the major pathways in mitochondria altered in the MARCKS peptide decoy treated animals. Mitochondrial NADH dehydrogenase is a key enzyme in the oxidative phosphorylation pathway in the mitochondria. Mitochondrially encoded cytochrome c oxidase I (MT-CO1), also known as cytochrome c oxidase I (COX1), is a protein that is found in mitochondria. Cytochrome c oxidase is the component of the respiratory chain that catalyzes the reduction of oxygen to water. MT-CO1 is associated with aging. Mutations in the human MT-CO1 gene have been associated with several diseases, including neurodegenerative diseases, such as late-onset Alzheimer disease. Cytochrome b (mt-cyb) is a component of the ubiquinol-cytochrome c reductase complex (complex III or cytochrome b-c1 complex), which is a respiratory chain that generates an electrochemical potential coupled to ATP synthesis. ATP synthase F0 subunit 6 (or subunit/chain A) is a subunit of F0 complex of transmembrane F-type ATP synthase. This subunit is a key component of the proton channel, and may play a direct role in the translocation of protons across the membrane. ATP6 is a gene associated with neuropathy, ataxia, and retinitis pigmentosa. mt-ATP8 is another subunit involved in ATP biosynthetic process.
Table 5 provides the list of the genes that are directly or indirectly associated with neurological function and are with significant fold change in peptide decoy treated animals in comparison to the controls.

[4] = locus chrM: 9450-9798, vehicle 617.42

## SEQ ID NO: 1: fusion peptide including a TAT protein transduction domain and residues surrounding two known serine phosphorylation targets (Ser159 and Ser163) within MARCKS (YGRKKRRQRRRCKRFSFKKSFKLSGFSFKK; TAT MARCKS fusion)
[1]
  RT-PCR Tiam1 Average normalized to GADPH: 0.89
[2]
  RT-PCR FILIP1 Average (normalized to GAPDH): 1.20
[3]; locus chr1: 77244168-77252808
  Ln (Fold Change) (M/V), Calm3: 1.894
[3]; locus chr1: 77244168-77252808, vehicle 856.54
  MARCKS FPKM, Calm3: 1621.94 FPKM
[3]; locus chr1: 212430422-212432741
  Ln (Fold Change) (M/V), Fth1: 1.397
[3]; locus chr1: 212430422-212432741, vehicle 354.58
  MARCKS FPKM, Fth1: 495.44 FPKM
[3]; locus chr1: 249369571-249369889
  Ln (Fold Change) (M/V), P97600_RAT: 0.7544
[3]; locus chr1: 249369571-249369889, vehicle 492.68
  MARCKS FPKM, P97600_RAT: 371.65 FPKM
[3]; locus chr2: 147913244-147929296
  Ln (Fold Change) (M/V), Selt: 0.5377
[3]; locus chr2: 147913244-147929296, vehicle 214.44
  MARCKS FPKM, Selt: 115.30 FPKM
[3]; locus chr3: 124860288-124894636
  Ln (Fold Change) (M/V), Snap25: 0.8176
[3]; locus chr3: 124860288-124894636, vehicle 750.47
  MARCKS FPKM, Snap25: 613.59 FPKM
[3]; locus chr3: 154926026-155140469
  Ln (Fold Change) (M/V), Ywhab: 0.5137
[3]; locus chr3: 154926026-155140469, vehicle 131.57
  MARCKS FPKM, Ywhab: 67.59 FPKM
[3]; locus chr5: 19822457-19849209
  Ln (Fold Change) (M/V), Sdcbp: 0.666
[3]; locus chr5: 19822457-19849209, vehicle 131.61
  MARCKS FPKM, Sdcbp: 87.65 FPKM
[3]; locus chr5: 105659673-105661250
  Ln (Fold Change) (M/V), Rraga: 0.4798
[3]; locus chr5: 105659673-105661250, vehicle 433.02
  MARCKS FPKM, Rraga: 207.77 FPKM
[3]; locus chr5: 148268061-148276223
  Ln (Fold Change) (M/V), HPCA_RAT: 2.229
[3]; locus chr5: 148268061-148276223, vehicle 141.44
  MARCKS FPKM, HPCA_RAT: 315.32 FPKM
[3]; locus chr6: 94397064-94426283
  Ln (Fold Change) (M/V), RTN1_RAT: 1.726
[3]; locus chr6: 94397064-94426283, vehicle 842.08
  MARCKS FPKM, RTN1_RAT: 1453.43 FPKM
[3]; locus chr7: 137706855-137709839
  Ln (Fold Change) (M/V), Tuba1b: 0.5387
[3]; locus chr7: 137706855-137709839, vehicle 219.23
  MARCKS FPKM, Tuba1b: 118.09 FPKM
[3]; locus chr10: 63072127-63109833
  Ln (Fold Change) (M/V), Ywhae: 0.6546
[3]; locus chr10: 63072127-63109833, vehicle 892.66
  MARCKS FPKM, Ywhae: 584.35 FPKM
[3]; locus chr10: 64308825-64312415
  Ln (Fold Change) (M/V), Aldoc: 0.5322
[3]; locus chr10: 64308825-64312415, vehicle 140.11
  MARCKS FPKM, Aldoc: 74.57 FPKM
[3]; locus chr15: 27338551-27347196
  Ln (Fold Change) (M/V), Ndrg2: 0.4224
[3]; locus chr15: 27338551-27347196, vehicle 142.86
  MARCKS FPKM, Ndrg2: 60.35 FPKM
[3]; locus chr15: 64161641-64162753
  Ln (Fold Change) (M/V), Calm-ps2: 0.7792
[3]; locus chr15: 64161641-64162753, vehicle 383.97
  MARCKS FPKM, Calm-ps2: 299.19 FPKM
[3]; locus chr16: 39670749-39783384
  Ln (Fold Change) (M/V), Gpm6a: 0.5709
[3]; locus chr16: 39670749-39783384, vehicle 311.49
  MARCKS FPKM, Gpm6a: 177.84 FPKM
[3]; locus chr16: 49353475-49357271
  Ln (Fold Change) (M/V), Slc25a4: 1.571
[3]; locus chr16: 49353475-49357271, vehicle 243.91
  MARCKS FPKM, Slc25a4: 383.20 FPKM
[3]; locus chr19: 11284554-11286402
  Ln (Fold Change) (M/V), Mt3: 1.316
[3]; locus chr19: 11284554-11286402, vehicle 301.07
  MARCKS FPKM, Mt3: 396.12 FPKM
[3]; locus chrM: 67-1025
  Ln (Fold Change) (M/V), Non-Annotated: 0.8288
[3]; locus chrM: 67-1025, vehicle 69491.10
  MARCKS FPKM, Non-Annotated: 57596.80 FPKM
[3]; locus chrM: 1093-2664
  Ln (Fold Change) (M/V), Non-Annotated: 0.6921
[3]; locus chrM: 1093-2664, vehicle 53178.50
  MARCKS FPKM, Non-Annotated: 36802.40 FPKM
[3]; locus chrM: 2739-3831
  Ln (Fold Change) (M/V), Mitochondrial NADH dehydrogenase subunit 1 mt-nd1: 0.7838
[3]; locus chrM: 2739-3831, vehicle 51.90
  MARCKS FPKM, Non-Annotated: 0.00 FPKM
[3]; locus chrM: 2739-3831, vehicle 126.72
  MARCKS FPKM, Non-Annotated: 0.00 FPKM
[3]; locus chrM: 2739-3831, vehicle 1879.89
  MARCKS FPKM, Mitochondrial NADH dehydrogenase subunit 1 mt-nd1: 1473.47 FPKM
[3]; locus chrM: 2739-3831, vehicle FPKM 51.90
  Ln (Fold Change) (M/V), Non-Annotated: 0
[3]; locus chrM: 2739-3831, vehicle FPKM 126.72
  Ln (Fold Change) (M/V), Non-Annotated: 0
[3]; locus chrM: 3903-5008
  Ln (Fold Change) (M/V), Mitochondrial NADH dehydrogenase subunit 2 mt-nd2: 0.5713
[3]; locus chrM: 3903-5008, vehicle 1965.45
  MARCKS FPKM, Mitochondrial NADH dehydrogenase subunit 2 mt-nd2: 1122.94 FPKM
[3]; locus chrM: 5322-6933
  Ln (Fold Change) (M/V), Cytochrome c oxidase subunit I mt-co1: 0.7397
  Ln (Fold Change) (M/V), Non-Annotated: 0
[3]; locus chrM: 5322-6933, vehicle 321.91
  MARCKS FPKM, Non-Annotated: 0.00 FPKM
[3]; locus chrM: 5322-6933, vehicle 9734.89
  MARCKS FPKM, Cytochrome c oxidase subunit I mt-co1: 7200.89 FPKM
[3]; locus chrM: 7005-7689
  Ln (Fold Change) (M/V), Cytochrome c oxidase subunit 2 mt-co2: 0.6512
[3]; locus chrM: 7005-7689, vehicle 5773.44
  MARCKS FPKM, Cytochrome c oxidase subunit 2 mt-co2: 3759.79 FPKM
[3]; locus chrM: 7757-9382
  Ln (Fold Change) (M/V), ATP synthase F0 subunit 6 mt-ATP6: 0.5529
  Ln (Fold Change) (M/V), ATP synthase F0 subunit 8 mt-ATP8: 0.7137
  Ln (Fold Change) (M/V), Cytochrome c oxidase subunit 3 mt-co3: 0.5326
[3]; locus chrM: 7757-9382, vehicle 3257.55
  MARCKS FPKM, ATP synthase F0 subunit 6 mt-ATP6: 1801.13 FPKM
[3]; locus chrM: 7757-9382, vehicle 3627.88
  MARCKS FPKM, ATP synthase F0 subunit 8 mt-ATP8: 2589.08 FPKM
[3]; locus chrM: 7757-9382, vehicle 5137.18
  MARCKS FPKM, Cytochrome c oxidase subunit 3 mt-co3: 2736.25 FPKM
[3]; locus chrM: 9450-9798
  Ln (Fold Change) (M/V), Mitochondrial NADH dehydrogenase subunit 3 mt-nd3: 0.5255
  Ln (Fold Change) (M/V), NU3M_RAT: 0.5255
[3]; [4]
  MARCKS FPKM, Mitochondrial NADH dehydrogenase subunit 3 mt-nd3: 324.46 FPKM
  MARCKS FPKM, NU3M_RAT: 324.46 FPKM
[3]; locus chrM: 9869-11537
  Ln (Fold Change) (M/V), Mitochondrial NADH dehydrogenase subunit 4 mt-nd4: 0.6903
  Ln (Fold Change) (M/V), NADH dehydrogenase subunit 4L mt-ND4L: 0.7182
[3]; locus chrM: 9869-11537, vehicle 2440.82
  MARCKS FPKM, Mitochondrial NADH dehydrogenase subunit 4 mt-nd4: 1684.95 FPKM
[3]; locus chrM: 9869-11537, vehicle 5804.14
  MARCKS FPKM, NADH dehydrogenase subunit 4L mt-ND4L: 4168.41 FPKM
[3]; locus chrM: 11735-14061
  Ln (Fold Change) (M/V), Mitochondrial NADH dehydrogenase subunit 5 mt-nd5: 0.8563
  Ln (Fold Change) (M/V), Mitochondrial NADH dehydrogenase subunit 6 mt-nd6: 0.4947
[3]; locus chrM: 11735-14061, vehicle 1073.10
  MARCKS FPKM, Mitochondrial NADH dehydrogenase subunit 6 mt-nd6: 530.91 FPKM
[3]; locus chrM: 11735-14061, vehicle 2920.80
  MARCKS FPKM, Mitochondrial NADH dehydrogenase subunit 5 mt-nd5: 2501.19 FPKM
[3]; locus chrM: 14135-15278
  Ln (Fold Change) (M/V), Cytochrome b (mt-cyb): 0.7536
[3]; locus chrM: 14135-15278, vehicle 2792.49
  MARCKS FPKM, Cytochrome b (mt-cyb): 2104.37 FPKM
[3]; locus chrX: 160299116-160305777
  Ln (Fold Change) (M/V), Gdi1: 0.6667
[3]; locus chrX: 160299116-160305777, vehicle 124.22
  MARCKS FPKM, Gdi1: 82.82 FPKM
